Data published in PMC11266932, “Enhanced absorption of prenylated cinnamic acid derivatives from Brazilian green propolis by turmeric in humans and rats” (Food Science & Nutrition, 2024).

Target: T1, breast cancer resistance protein (BCRP) (Homo sapiens, UniProt Q9UNQ0)
T1 construct: host or cells: MDCK II (Madin-Darby canine kidney) cells overexpressing BCRP
T1 sequence (Q9UNQ0 1-655): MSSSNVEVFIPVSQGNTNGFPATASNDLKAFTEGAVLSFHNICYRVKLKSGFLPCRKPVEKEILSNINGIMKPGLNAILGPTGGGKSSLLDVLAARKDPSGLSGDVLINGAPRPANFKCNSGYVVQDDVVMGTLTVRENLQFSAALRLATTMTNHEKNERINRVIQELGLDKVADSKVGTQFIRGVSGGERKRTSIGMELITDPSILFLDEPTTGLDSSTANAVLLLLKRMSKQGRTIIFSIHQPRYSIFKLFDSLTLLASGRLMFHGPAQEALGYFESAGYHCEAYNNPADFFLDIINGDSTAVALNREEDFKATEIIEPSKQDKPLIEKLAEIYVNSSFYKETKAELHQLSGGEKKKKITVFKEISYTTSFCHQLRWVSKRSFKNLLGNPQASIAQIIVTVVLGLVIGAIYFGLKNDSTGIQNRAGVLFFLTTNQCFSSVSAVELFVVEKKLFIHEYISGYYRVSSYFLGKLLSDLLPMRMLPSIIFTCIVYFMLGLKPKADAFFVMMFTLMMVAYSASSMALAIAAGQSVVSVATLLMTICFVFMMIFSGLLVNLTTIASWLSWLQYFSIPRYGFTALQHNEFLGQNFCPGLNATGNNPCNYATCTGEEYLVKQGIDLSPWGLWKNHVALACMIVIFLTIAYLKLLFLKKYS
Experiment: Bidirectional transport assay across MDCK II-BCRP cell monolayer
Assay type: in vitro ADME
Details: for Net flux ratio: ER of MDCK II‐BCRP divided by ER of parent MDCK II, >2 = transporter-mediated efflux; for substrate of BCRP (in words): bidirectional transport assay, net flux ratio criterion
Description: The Madin‐Darby canine kidney (MDCK II) cell line and MDCK II cells overexpressing multidrug resistance 1 (MDR1) or breast cancer resistance protein (BCRP) were purchased from the Netherlands Cancer Institute (Amsterdam, Netherlands) and SOLVO Biotechnology (Szeged, Hungary), respectively. The cell lines were routinely cultured in Dulbecco's modified Eagle's medium (DMEM) containing 10% fetal bovine serum and 1% penicillin/streptomycin at 37°C in 5% CO2. All cells were seeded in a feeder tray at a density of 3–6 × 10^4 cells/well and grown for 3–4 days. On the day of the transport study, cell monolayers were washed with Hanks' balanced salt solution (HBSS) buffer containing 0.1% BSA (pH 7.4) and incubated at 37°C for 20 min. Artepillin C and drupanin dissolved in DMSO (10 mM) were added to the transport buffer (HBSS containing 10 mM HEPES, 0.2% glucose, 0.1% BSA, pH 7.4) to a final concentration of 10 μM and then loaded into the apical or basolateral chamber. After 120 min of incubation, 150 μL of the aliquots were collected from the donor and receiver chambers and mixed with an equal volume of 50% methanol. After centrifugation at 3000 rpm for 10 min at 4°C, the supernatants were filtered and subjected to LC–MS/MS analysis.
The in vitro samples were analyzed using HPLC (LC‐20A, Shimadzu, Kyoto, Japan) with a reversed‐phase column (Inertsil ODS‐3, 2.1 × 33 mm, ID. 3 μm, GL Sciences, Tokyo, Japan) held at 40°C. The mobile solvents used were water with 10 mM ammonium acetate (pH 4.0, A) and methanol (B) pumped at a flow rate of 0.4 mL/min. The following gradient was employed: 10%–90% B (0–0.5 min), 90% B (0.5–2.5 min), and 10% B (2.5–4 min). The eluent was monitored using a triple quadrupole mass spectrometer (API 4000, AB Sciex, Framingham, MA, USA) incorporating an electrospray ion source (ESI) operating in the multiple reaction monitoring mode. The ESI source was operated in negative ionization mode at 600°C with a spray voltage of −4.5 kV. The curtain gas (nitrogen), collision gas (nitrogen), nebulizer gas (whole air), and drying gas (whole air) were set at 40, 5, 50, and 70 psi, respectively. […] Artepillin C and drupanin were diluted in 50% methanol to concentrations of 1.6, 3.2, 8, 40, 200, 1000, and 2000 nM and were used as external standards. Sulfaphenazole (0.2 μM) was used as an internal standard.
The apparent permeability coefficients (Papp) for both directions, from the apical side to the basolateral side (A to B) and from the basolateral side to the apical side (B to A) in the cell monolayer, were calculated using the following equation: (1) Papp=dQ/dt/A×C0 where dQ/dt is the permeation rate (nmol/s), A is the membrane area (cm^2), and C0 is the initial concentration of the compound in the donor compartment (nM). The efflux ratios (ER) in the B‐to‐A and A‐to‐B directions were determined using the following equation: (2) ER=PappBtoA/PappAtoB
Net flux ratios were calculated by dividing the ER obtained from MDCK II‐MDR1 (or BCRP) cells by that obtained from the parent MDCK II cells.

[1] = 10 μM, 120 min, mean ± SE, n = 2

Row | Compound | Net flux ratio | substrate of BCRP (in words) | Papp MDCK II‐BCRP A to B [1] | Papp MDCK II‐BCRP B to A [1] | Flux ratio (MDCK II‐BCRP) (efflux ratio, ER) (10 μM, Papp B to A / Papp A to B)
1 | CC(C)=CCc1cc(/C=C/C(=O)O)ccc1O [drupanin] | 20.4 | substrates | – | – | –
2 | CC(C)=CCc1cc(/C=C/C(=O)O)cc(CC=C(C)C)c1O [artepillin C] | 2.0 | substrates | 9.7 ± 0.2 10^−6 cm/s | 16.0 ± 0.01 10^−6 cm/s | 1.6
